Measured values taken from US9403829B2, “Pharmaceutical compositions of 7-(6-(2-hydroxypropan-2-yl)pyridin-3-yl)-1-((trans)-4-methoxycyclohexyl)-3,4-dihydropyrazino [2,3-b]pyrazin-2(1H)-one, a solid form thereof and methods of their use” (Signal Pharmaceuticals, LLC, priority 2011, dated 2016).
Blank lines part the entries; values can stand above or below the compound they belong to.

Assays:
[1] = Gravimetric vapour sorption (DVS) hygroscopicity; type: physicochemical; settings: for water uptake (mass gain): between 0 and 80% relative humidity, DVS, 25° C.
Description: Sorption isotherms were obtained using a SMS DVS Intrinsic moisture sorption analyser, controlled by DVS Intrinsic Control software v1.0.0.30. The sample temperature was maintained at 25° C. by the instrument controls. The humidity was controlled by mixing streams of dry and wet nitrogen, with a total flow rate of 200 mL/min. The relative humidity was measured by a calibrated Rotronic probe (dynamic range of 1.0-100% RH), located near the sample. The weight change, (mass relaxation) of the sample as a function of % RH was constantly monitored by the microbalance (accuracy±0.005 mg). Typically 5-20 mg of sample was placed in a tared mesh stainless steel basket under ambient conditions. The sample was loaded and unloaded at 40% RH and 25° C. (typical room conditions). The standard isotherm was performed at 25° C. at 10% RH intervals over a 0-90% RH range. Data analysis was undertaken in Microsoft Excel using DVS Analysis Suite v6.0.0.7.
Hygroscopicity of Form A was determined by moisture adsorption and desorption.

[2] = Phase 1 crossover pharmacokinetic study of tablet and capsule formulations, single oral dose; type: in vivo, human
Description: Certain formulations provided herein were evaluated in a Phase 1, open-label, randomized, crossover study.
On Day 1 of Period 1, following an overnight fast of at least 8 hours, subjects were randomized to one of the following 3 sequences to receive Treatment A, B or C (Table 30).
In Treatment A, one 20-mg reference Compound A API-in-capsule was administered orally after at least 8 hour fast with 240 mL of non-carbonated, room temperature water. In Treatment B, one 20-mg tablet of Compound A (Tablet Formulation XIII) was administered under fasted conditions. In Treatment C, four 5-mg tablets of Compound A (Tablet Formulation XIV) were administered under fasted conditions. The 20-mg tablet and four 5-mg tablets were administered orally after at least 8 hour fast with 240 mL of non-carbonated, room temperature water.
For each period, serial blood samples were collected before dosing (zero hour) and at 0.5, 1, 1.5, 2, 2.5, 3, 4, 6, 8, 12, 24, 48, 72, and 96 hours after dosing. Plasma concentrations of Compound A were determined for determining PK parameters, such as […], AUC0-∞, Cmax, Tmax, t1/2, CL/F, and Vz/F for Compound A. Plasma PK parameters were calculated using non compartmental methods. Analyses of variance (ANOVA) were performed on the natural log-transformed AUC0-t, AUC0-∞, and Cmax for Compound A. The geometric mean ratios (test/reference) and their 90% confidence intervals were also calculated. For Tmax, non parametric analysis was used to produce median differences.

[3] = Phase 1 food effect study (Part 2), single 20-mg oral dose of Compound A tablet, fed vs fasted; type: in vivo, human; settings: for CL/F / Tmax / AUC(0-inf) / Cmax / half-life / AUC(0-t) / Vd/F: single 20-mg oral dose of Compound A tablet; for CL/F / AUC(0-inf) / Cmax / half-life / AUC(0-t) / Vd/F: geometric mean; for Tmax / AUC(0-inf) / Cmax / half-life / AUC(0-t) / Vd/F: male, human, plasma, po, 20 mg; for Tmax: median, read-out: Tmax; for AUC(0-t): read-out: AUC0-24; for Vd/F: read-out: Vz/F
Description: The primary objectives of this study are: to characterize the biotransformation and excretion of Compound A following a single 20 mg oral dose of Compound A capsule containing a microtracer of [^14C]-Compound A solution in healthy male subjects (Part 1) and to evaluate the effect of a high-fat meal on the pharmacokinetics (PK) of Compound A following a single oral 20-mg dose of Compound A tablet (Part 2).
Part 2 design: Part 2 will be a 2-period crossover study; in Period 1, subjects (n=12) will be randomized to receive either an oral 20 mg dose of Compound A tablet (Treatment B) under fed (n=6) or fasted (n=6) conditions. In Period 2, subjects will receive Treatment B under converse conditions based on treatment assignment in Period 1. After screening, subjects (n=12) eligible for participation in the study will return to the study center on Day −1 for baseline assessments. Subjects who continue to be qualified for participation in the study will be randomized and enrolled in the study on the morning of Day 1. Subjects (n=6) will be enrolled and randomized to receive Treatment B under fed or fasted conditions on the morning of Day 1 after fasting for at least 8 hours. Fed subjects will be served a standard high fat meal breakfast, or its equivalent, that must be consumed within 30 minutes from serving. Dosing must occur 30 minutes (+5 minutes) after serving a subject breakfast. All subjects (fed and fasted) will fast (not to consume any food) until 4 hours post dose. Water will be allowed during the fasting period. Subjects will be domiciled at the study center from Day −1 until the morning of Day 5 of each period. Subjects will be discharged from the study center on the morning of Day 5 upon satisfactory safety review and completion of study-related procedures. Safety and tolerability data will be monitored and collected following each dosing period. Periods 1 and 2 will be separated by a washout period of at least 7 days (no more than 10 days) from prior dose to the next dose. In certain instances, a longer washout may be acceptable if previously agreed to.
Serial blood samples (10 mL) will be collected at predose (0 hour) and at 0.5, 1, 2, 3, 6, 12, 24, 48, 72 and 96 hours post dose for the determination of plasma concentrations of Compound A and the O-desmethyl metabolite of Compound A. Safety will be monitored throughout the study; safety evaluations will include AE reporting, physical examinations, vital sign measurements, ECG, and clinical laboratory safety tests. Concomitant medications will be assessed and recorded throughout the study as well. In addition, during the subjects' stay-in-the clinic (i.e., confinement period), fasting plasma glucose levels will be monitored as part of the clinical laboratory safety tests. For Parts 1 and 2, all subjects will return to the clinic within 7 to days after the last dose for follow up safety assessments. In the event that a subject discontinues prematurely from the study, every reasonable effort should be made (and documented) to ensure that all procedures and evaluations scheduled for the follow-up visit are performed at the time of discontinuation or a follow-up visit should be scheduled within 7 to days from the discontinuation day.
Part 2 dosing: In Part 2, subjects will fast overnight for at least 8 hours prior to Compound A administration. On the morning of Day 1, each subject will receive a 20-mg tablet of Compound A orally. Subjects randomized to receive Compound A under fed conditions will be a served a standard high fat meal (breakfast).
The standard high fat meal or its equivalent must be consumed within minutes of serving. Dosing must occur 30 minutes (+5 minutes) after serving the meal. The tablet will be administered with approximately 240 mL of non-carbonated, room temperature water. After dosing, subjects will continue to fast until 4 hours after dosing.

[4] = fed vs fasted, healthy adult males, 20 mg Compound A

- hygroscopicity ([1]; DVS moisture adsorption and desorption): not hygroscopic
- XRPD diffractogram after full adsorption/desorption cycle ([1]; after DVS cycle): unchanged from the initial Form A
- water uptake (mass gain) [1]: < 0.1 % w/w
- water uptake (mass gain) ([1]; listed as Form A of Compound A): less than 0.1 % w/w
- weight gain ([1]; increase in humidity from about 0% to about 50% relative humidity at about 25° C.): about 0.1 % w/w
- weight gain ([1]; increase in humidity from about 0% to about 95% relative humidity at about 25° C.): about 0.3 % w/w
- mass gain ([1]; increase in humidity from about 80% to about 90% relative humidity): about 0.5 % w/w
SMILES: CO[C@H]1CC[C@H](N2C(=O)CNc3ncc(-c4ccc(C(C)(C)O)nc4)nc32)CC1 [Form A, 7-(6-(2-hydroxypropan-2-yl)pyridin-3-yl)-1-((trans)-4-methoxycyclohexyl)-3,4-dihydropyrazino[2,3-b]pyrazin-2(1H)-one]

- CL/F ([2]; Treatment A: one 20-mg Compound A API-in-capsule, oral, fasted, n = 18, geometric mean): 20.3 L/h
- half-life ([2]; male, human, plasma, Treatment A: one 20-mg Compound A API-in-capsule, oral, fasted, n = 18, geometric mean): 5.7 h
- Vd/F ([2]; male, human, plasma, Treatment A: one 20-mg Compound A API-in-capsule, oral, fasted, n = 18, geometric mean, read-out: Vz/F): 167 L
- Tmax ([2]; male, human, Treatment A: one 20-mg Compound A API-in-capsule, oral, fasted, healthy adult males, n = 18, plasma, median): 1.5 h
- Cmax ([2]; male, human, Treatment A: one 20-mg Compound A API-in-capsule, oral, fasted, n = 18, plasma, geometric mean): 190 ng/mL
- AUC(0-t) ([2]; male, human, Treatment A: one 20-mg Compound A API-in-capsule, oral, fasted, n = 18, plasma, geometric mean, read-out: AUC0-24): 934 ng·h/mL
- AUC(0-inf) ([2]; male, human, Treatment A: one 20-mg Compound A API-in-capsule, oral, fasted, n = 18, plasma, geometric mean, read-out: AUC0-∞): 985 ng·h/mL
- pharmacokinetics, tablet formulations vs API in capsule ([2]; single dose 20 mg, healthy adult male subjects): comparable
- CL/F ([3]; Fasted (n = 11)): 19.9 L/h
- CL/F ([3]; Fed (n = 11, high fat meal)): 16.7 L/h
- decrease in Cmax with a high fat meal [3, 4]: ~17%
- increase in overall exposure (AUCinf) with a high fat meal [3, 4]: ~20%
- Tmax ([3]; Fasted (n = 11), healthy adult males): 1 h
- AUC(0-inf) ([3]; Fasted (n = 11)): 1000 ng·h/mL
- Cmax ([3]; Fasted (n = 11)): 182 ng/mL
- half-life ([3]; Fasted (n = 11)): 5.3 h
- AUC(0-t) ([3]; Fasted (n = 11)): 955 ng·h/mL
- Vd/F ([3]; Fasted (n = 11)): 151 L
- AUC(0-inf) ([3]; Fed (n = 11, high fat meal)): 1200 ng·h/mL
- Cmax ([3]; Fed (n = 11, high fat meal)): 156 ng/mL
- half-life ([3]; Fed (n = 11, high fat meal)): 5.2 h
- AUC(0-t) ([3]; Fed (n = 11, high fat meal)): 1130 ng·h/mL
- Vd/F ([3]; Fed (n = 11, high fat meal)): 125 L
- Tmax ([3]; Fed (n = 11, high fat meal)): 3 h
SMILES: CO[C@H]1CC[C@H](N2C(=O)CNc3ncc(-c4ccc(C(C)(C)O)nc4)nc32)CC1 [Compound A, 7-(6-(2-hydroxypropan-2-yl)pyridin-3-yl)-1-((trans)-4-methoxycyclohexyl)-3,4-dihydropyrazino[2,3-b]pyrazin-2(1H)-one]
